Source: patent US11399455B1, “Cast pellets for planting seeds” (Ball Horticultural Company, priority 2010, dated 2022)

Experiments:
[1] = tested on: Impatiens Dazzler White seeds; assay: Growth regulator in casting: germination and plant height; type: in vivo; conditions: count date 11; for Germ (%): 25° C.
Method: (§1) A single seed was placed in every mold cavity of a mold containing 108 cavities of dimensions 0.25 inch (6.4 mm) in length by 0.125 inch (3.2 mm) in width and 0.125 inch (3.2 mm) in depth. The following growth regulator concentrations were applied to seed via the casting method: 2 ppm, 4 ppm, and 8 ppm. PEG 4000 (100 g) was weighed out and put into a beaker. This was done four times. Each beaker with the PEG 4000 was heated to 111° F. until the PEG 4000 completely melted. The growth regulator concentrations were made by dissolving a given weight of the plant grown retardant ancymidol (α-cyclopropyl-α-(p-methoxyphenyl)-5-pyrimidinemethanol; A-REST) powder into 1 ml of acetone, as follows: 6.4 mg A-REST into 1 ml of acetone for 2 ppm; 12.8 mg A-REST into 1 ml of acetone for 4 ppm; and 25.6 mg A-REST into 1 ml acetone for 8 ppm. Once dissolved, the specified concentrations of A-REST were added to the beakers with the melted PEG and mixed on the heated stir plate until well blended; 65 μl was pipetted into the cavities that contained the seeds. Once the entire mold was filled it was set aside to cool. […] The castings were then removed from the mold.
(§2) The 108 castings (seed plus PEG 4000) containing the A-REST concentrations, along with a cast only (no added A-REST) and a raw control, were sown in a plug tray to evaluate germination. Seeds were sown at 25° C. The plug trays were run through a watering tunnel and then put into a Stage 1 mist chamber. Upon radical emergence, the plugs were placed in a Stage 2 chamber. The amount of time in Stage 1 and Stage 2 was dependent on the crop.
(§3) Plant height was measured and recorded on the same day seed germination was recorded.

[2] = tested on: Marigolds African Marvel Orange seeds; assay: as above; type: in vivo; conditions: count date 10; for Germ (%): 25° C.
Method: as §1, §2, §3

Structure (SMILES): COc1ccc(C(O)(c2cncnc2)C2CC2)cc1 (stereo not drawn) [A-REST, α-cyclopropyl-α-(p-methoxyphenyl)-5-pyrimidinemethanol]
- Germ (%) ([1]; 2 ppm in PEG 4000 casting): 96%
- Ave. Height (mm) ([1]; 2 ppm in PEG 4000 casting): 13 mm
- Germ (%) ([1]; 4 ppm in PEG 4000 casting): 94%
- Ave. Height (mm) ([1]; 4 ppm in PEG 4000 casting): 11 mm
- Germ (%) ([1]; 8 ppm in PEG 4000 casting): 99%
- Ave. Height (mm) ([1]; 8 ppm in PEG 4000 casting): 9 mm
- Germ (%) ([2]; 2 ppm in PEG 4000 casting): 98%
- Ave. Height (mm) ([2]; 2 ppm in PEG 4000 casting): 12 mm
- Germ (%) ([2]; 4 ppm in PEG 4000 casting): 87%
- Ave. Height (mm) ([2]; 4 ppm in PEG 4000 casting): 12 mm
- Germ (%) ([2]; 8 ppm in PEG 4000 casting): 82%
- Ave. Height (mm) ([2]; 8 ppm in PEG 4000 casting): 12 mm
